# According to patent publication US20260007681A1, “INDOLE DERIVATIVES AS ESTROGEN RECEPTOR DEGRADERS” (REGENTS OF THE UNIVERSITY OF MICHIGAN, priority 2022, published 2026):
# Like-named read-outs stand apart in the source and are kept apart here.
# Columns and labels:
# CRBN/DDB1 = CRBN/DDB1 (Homo sapiens (Human), UniProt Q96SW2); format: binding; settings: His tagged CRBN+DDB-DLS7+CXU4, Cy5-labeled Thalidomide probe, one hour incubation; read-out: CRBN HTRF IC50
# Description: The binding potency was determined using H-TRF assay technology (Perkin Elmer). Compounds were serially diluted in DMSO and 0.2 μL volume was transferred to white 384-well plate.
# ER in T47D cells = ER in T47D cells (Homo sapiens (Human), UniProt P03372); assay: In-cell western (ICW) ER degradation assay in T47D cells (Compounds A1-A70); format: cell-based; settings: for DC50: ER degradation, 0.02 to 300 nM; for Dmax: T47D, read-out: T47D ICW Dmax (%)
# Sequence of ER in T47D cells (P03372 whole entry): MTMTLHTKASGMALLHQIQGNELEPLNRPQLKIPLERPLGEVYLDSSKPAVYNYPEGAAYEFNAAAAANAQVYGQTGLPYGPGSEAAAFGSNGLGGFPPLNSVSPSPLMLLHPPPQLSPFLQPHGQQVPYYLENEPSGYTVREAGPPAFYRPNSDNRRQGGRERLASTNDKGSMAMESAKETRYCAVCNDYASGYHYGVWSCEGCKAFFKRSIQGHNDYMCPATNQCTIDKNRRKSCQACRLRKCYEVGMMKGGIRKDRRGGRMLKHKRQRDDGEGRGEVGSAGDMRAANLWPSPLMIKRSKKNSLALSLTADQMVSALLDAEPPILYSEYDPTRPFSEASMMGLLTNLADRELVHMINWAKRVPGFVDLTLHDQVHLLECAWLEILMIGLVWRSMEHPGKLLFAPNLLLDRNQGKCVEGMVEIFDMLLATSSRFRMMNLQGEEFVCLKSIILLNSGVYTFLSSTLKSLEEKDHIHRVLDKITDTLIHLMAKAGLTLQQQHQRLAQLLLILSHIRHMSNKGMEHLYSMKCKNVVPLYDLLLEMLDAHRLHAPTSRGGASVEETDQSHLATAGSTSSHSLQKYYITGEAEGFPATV
# Description: (§1) ERa degradative activity of compounds can be assessed in MCF-7 and T47D Cells. MCF-7 and T47D cell are seeded and are subsequently treated with the compounds at certain concentrations (e.g., 0.02 to 300 nM). DMSO can be used as vehicle control. Cells are fixed and are blocked with Intercept (PBS) Blocking Buffer (e.g., Li—COR, Odyssey Blocking Buffer), and are stained with ER (e.g., 1:500, Cell signaling) primary antibody for overnight at cold room. Secondary Antibody (e.g., IRDye 800CW Goat anti-Rabbit IgG) and CellTag 700 Stain are added in Intercept (PBS) Blocking Buffer. Finally, cell plate is placed in incubator to dry. Image and signal are captured on Odyssey® DLx Imaging System.
# (§2) Day 3: After 16 hrs of compounds treatment, cells were fixed by 4% PFA and permeabilized with elution buffer (0.1% Triton X-100 in 1% PBS Solution). Subsequently, cells were blocked with Intercept (PBS) Blocking Buffer (Li—COR, Odyssey Blocking Buffer), and were stained with ER (1:500, Cell signaling) primary antibody for overnight at cold room.
# (§3) Day 4: Remove the buffer, add IRDye 800CW Goat anti-Rabbit IgG Secondary Antibody (1:2000) and CellTag 700 Stain (1:500) in Intercept (PBS) Blocking Buffer. Finally, cell plate is placed in incubator to dry. Image and signal were captured on Odyssey® DLx Imaging System.
# ER in MCF-7 cells = ER in MCF-7 cells (Homo sapiens (Human), UniProt P03372); assay: In-cell western (ICW) ER degradation assay in MCF-7 cells (Compounds A1-A70); format: cell-based; settings: for DC50: ER degradation, MCF-7 cells, 16 hrs treatment, 0.02 to 300 nM, read-out: MCF7 ICW DC50; for Dmax: MCF7, read-out: MCF7 ICW Dmax (%)
# Sequence of ER in MCF-7 cells (P03372 whole entry): as above
# Description: as §1, §2, §3
# ER = ER (Homo sapiens (Human), UniProt P03372); assay: In-cell western blot analysis of relative ER percentage (Compounds B1-B278); format: cell-based; settings: ER degradation, 16 hours, read-out: ICW DC50
# Sequence of ER (P03372 whole entry): as above
# In short: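 In-cell western: after 16 h compound exposure (0.5% DMSO final), fixed and permeabilized cells are probed with anti-ER plus anti-GAPDH and near-infrared secondaries. Relative ER percentage compares treated wells against untreated and DMSO wells taken as 100%; seeding 40,000 or 10,000 cells/well.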
# [1] = Cell growth assay (WST-8) (Compounds B1-B278); format: cell-based; settings: 96 h; T47D cell line; WST-8, 4 days; read-out: Cell Growth Inhibition in T47D cell line IC50
# In short: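 Read-out is WST-8 absorbance at 450 nm (2.5 h, 37° C) as a fraction of vehicle control, from three separate repeats. Compound exposure lasted 4 days, starting one day after plating 1500 cells/well.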
# Sequence of CRBN/DDB1 (Q96SW2 whole entry): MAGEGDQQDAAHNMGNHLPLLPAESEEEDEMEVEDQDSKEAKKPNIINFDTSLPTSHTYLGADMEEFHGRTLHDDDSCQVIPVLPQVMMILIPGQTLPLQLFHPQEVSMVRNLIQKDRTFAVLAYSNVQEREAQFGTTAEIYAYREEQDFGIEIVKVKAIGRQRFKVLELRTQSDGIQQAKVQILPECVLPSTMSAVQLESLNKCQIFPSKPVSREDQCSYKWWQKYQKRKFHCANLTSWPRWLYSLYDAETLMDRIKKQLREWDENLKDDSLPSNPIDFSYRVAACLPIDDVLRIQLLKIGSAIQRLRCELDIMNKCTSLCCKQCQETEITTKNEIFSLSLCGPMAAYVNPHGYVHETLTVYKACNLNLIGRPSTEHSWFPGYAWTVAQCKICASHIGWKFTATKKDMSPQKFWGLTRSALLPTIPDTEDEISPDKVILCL
# Sequence of CRBN/DDB1 (Q16531 whole entry partner): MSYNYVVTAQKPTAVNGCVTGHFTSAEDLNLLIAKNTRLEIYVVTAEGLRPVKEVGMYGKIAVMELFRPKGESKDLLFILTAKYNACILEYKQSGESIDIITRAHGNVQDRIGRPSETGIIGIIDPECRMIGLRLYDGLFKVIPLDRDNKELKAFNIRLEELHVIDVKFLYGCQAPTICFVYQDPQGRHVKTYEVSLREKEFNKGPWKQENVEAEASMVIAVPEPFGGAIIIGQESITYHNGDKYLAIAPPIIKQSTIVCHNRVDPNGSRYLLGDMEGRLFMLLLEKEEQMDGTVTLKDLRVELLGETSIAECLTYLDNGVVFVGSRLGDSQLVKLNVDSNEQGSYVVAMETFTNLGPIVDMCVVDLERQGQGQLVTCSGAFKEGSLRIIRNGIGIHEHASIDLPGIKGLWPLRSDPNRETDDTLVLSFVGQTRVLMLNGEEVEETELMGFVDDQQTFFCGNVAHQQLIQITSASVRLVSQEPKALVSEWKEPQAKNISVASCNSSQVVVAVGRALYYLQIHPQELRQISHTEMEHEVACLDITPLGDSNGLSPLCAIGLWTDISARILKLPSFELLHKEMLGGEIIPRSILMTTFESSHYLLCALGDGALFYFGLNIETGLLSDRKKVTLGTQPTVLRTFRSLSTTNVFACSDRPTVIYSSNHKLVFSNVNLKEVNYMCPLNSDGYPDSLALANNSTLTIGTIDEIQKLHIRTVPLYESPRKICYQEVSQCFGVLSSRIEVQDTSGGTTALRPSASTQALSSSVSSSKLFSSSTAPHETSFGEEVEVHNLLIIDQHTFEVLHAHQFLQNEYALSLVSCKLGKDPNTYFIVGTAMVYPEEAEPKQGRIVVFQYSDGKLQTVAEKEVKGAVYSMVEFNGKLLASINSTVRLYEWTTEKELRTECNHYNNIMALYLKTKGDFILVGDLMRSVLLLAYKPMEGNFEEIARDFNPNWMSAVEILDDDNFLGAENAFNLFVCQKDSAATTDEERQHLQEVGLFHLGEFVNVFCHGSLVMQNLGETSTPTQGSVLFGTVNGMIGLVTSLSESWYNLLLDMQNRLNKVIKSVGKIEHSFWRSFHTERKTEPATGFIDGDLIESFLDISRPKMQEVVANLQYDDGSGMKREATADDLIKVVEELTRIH
smiles,measurement,setting,value
"C[C@@H]1Cc2c([nH]c3ccccc23)[C@@H](c2cnc(N3CCC(N4CCN(c5ccc(NC6CCC(=O)NC6=O)cc5F)CC4)CC3)nc2)N1CC(F)F (stereo partly drawn) [Compound A1, 3-((4-(4-(1-(5-((1R,3R)-2-(2,2-difluoroethyl)-3-methyl-2,3,4,9-tetrahydro-1H-pyrido[3,4-b]indol-1-yl)pyrimidin-2-yl)piperidin-4-yl)piperazin-1-yl)-3-fluorophenyl)amino)piperidine-2,6-dione]",IC50,CRBN/DDB1,0.5 to 5 µM
"C[C@@H]1Cc2c([nH]c3ccccc23)[C@@H](c2cnc(N3CCC(N4CCC(c5ccc(NC6CCC(=O)NC6=O)cc5F)CC4)CC3)nc2)N1CC(F)F (stereo partly drawn) [Compound A3, 3-((4-(1′-(5-((1R,3R)-2-(2,2-difluoroethyl)-3-methyl-2,3,4,9-tetrahydro-1H-pyrido[3,4-b]indol-1-yl)pyrimidin-2-yl)-[1,4′-bipiperidin]-4-yl)-3-fluorophenyl)amino)piperidine-2,6-dione]",IC50,CRBN/DDB1,0.05 to 0.5 µM
"C[C@@H]1Cc2c([nH]c3ccccc23)[C@@H](c2cnc(N3C[C@@H]4[C@@H](CN5CCN6c7cc8c(cc7OC[C@@H]6C5)C(=O)N(C5CCC(=O)NC5=O)C8)[C@@H]4C3)nc2)N1CC(F)F (stereo partly drawn) [Compound A4, (S)-3-((S)-3-(((1R,5S,6S)-3-(5-((1R,3R)-2-(2,2-difluoroethyl)-3-methyl-2,3,4,9-tetrahydro-1H-pyrido[3,4-b]indol-1-yl)pyrimidin-2-yl)-3-azabicyclo[3.1.0]hexan-6-yl)methyl)-8-oxo-1,2,3,4,4a,5,8,10-octahydro-9H-pyrazino[1′,2′:4,5][1,4]oxazino[2,3-f]isoindol-9-yl)piperidine-2,6-dione]",IC50,CRBN/DDB1,0.5 to 5 µM
"C[C@@H]1Cc2c([nH]c3ccccc23)[C@@H](c2cnc(N3CCC4(CC3)CC(CN3CCN5c6ccc7c(c6OC[C@@H]5C3)CN(C3CCC(=O)NC3=O)C7=O)C4)nc2)N1CC(F)F (stereo partly drawn) [Compound A6, 3-((S)-7-((7-(5-((1R,3R)-2-(2,2-difluoroethyl)-3-methyl-2,3,4,9-tetrahydro-1H-pyrido[3,4-b]indol-1-yl)pyrimidin-2-yl)-7-azaspiro[3.5]nonan-2-yl)methyl)-1-oxo-1,3,5,5a,6,7,8,9-octahydro-2H-pyrazino[1′,2′:4,5][1,4]oxazino[2,3-e]isoindol-2-yl)piperidine-2,6-dione]",IC50,CRBN/DDB1,< 0.05 µM
"COc1ccc(C(=O)N2CCC(CN3CCN(c4ncc([C@@H]5c6[nH]c7ccccc7c6C[C@@H](C)N5CC(F)F)cn4)CC3)CC2)cc1N1CCC(=O)NC1=O [Compound A7, 1-(5-(4-((4-(5-((1R,3R)-2-(2,2-difluoroethyl)-3-methyl-2,3,4,9-tetrahydro-1H-pyrido[3,4-b]indol-1-yl)pyrimidin-2-yl)piperazin-1-yl)methyl)piperidine-1-carbonyl)-2-methoxyphenyl) dihydropyrimidine-2,4(1H,3H)-dione]",IC50,CRBN/DDB1,0.5 to 5 µM
"CS(=O)(=O)N1CCc2c([nH]c3ccccc23)[C@H]1c1c(F)cc(N2CCC3(CCN(C(=O)CN4Cc5cc6c(cc5C4)C(=O)N(C4CCC(=O)NC4=O)C6=O)CC3)CC2)cc1F (stereo partly drawn) [Compound A8, 6-(2-(9-(3,5-difluoro-4-((R)-2-(methylsulfonyl)-2,3,4,9-tetrahydro-1H-pyrido[3,4-b]indol-1-yl)phenyl)-3,9-diazaspiro[5.5]undecan-3-yl)-2-oxoethyl)-2-(2,6-dioxopiperidin-3-yl)-6,7-dihydropyrrolo[3,4-f]isoindole-1,3(2H,5H)-dione]",IC50,CRBN/DDB1,> 5 µM
"C[C@@H]1Cc2c([nH]c3ccccc23)[C@@H](c2cnc(N3C[C@@H]4[C@H](CN5CCN6c7cc8c(cc7OC[C@@H]6C5)C(=O)N([C@H]5CCC(=O)NC5=O)C8)[C@@H]4C3)nc2)N1CC(C)(C)F [Compound A13, (S)-3-((S)-3-(((1R,5S,6R)-3-(5-((1R,3R)-2-(2-fluoro-2-methylpropyl)-3-methyl-2,3,4,9-tetrahydro-1H-pyrido[3,4-b]indol-1-yl)pyrimidin-2-yl)-3-azabicyclo[3.1.0]hexan-6-yl)methyl)-8-oxo-1,2,3,4,4a,5,8,10-octahydro-9H-pyrazino[1′,2′:4,5][1,4]oxazino[2,3-f]isoindol-9-yl)piperidine-2,6-dione]",IC50,CRBN/DDB1,0.05 to 0.5 µM
"C[C@@H]1Cc2c([nH]c3ccccc23)[C@@H](c2cnc(N3CC[C@@H](CN4CCN5c6ccc7c(c6OC[C@@H]5C4)CN(C4CCC(=O)NC4=O)C7=O)C3)nc2)N1CC(F)F (stereo partly drawn) [Compound A14, 3-((S)-7-(((S)-1-(5-((1R,3R)-2-(2,2-difluoroethyl)-3-methyl-2,3,4,9-tetrahydro-1H-pyrido[3,4-b]indol-1-yl)pyrimidin-2-yl)pyrrolidin-3-yl)methyl)-1-oxo-1,3,5,5a,6,7,8,9-octahydro-2H-pyrazino[1′,2′:4,5][1,4]oxazino[2,3-e]isoindol-2-yl)piperidine-2,6-dione]",IC50,CRBN/DDB1,< 0.05 µM
"COc1cc(N2CCC(CN3CCN4c5cc6c(cc5OC[C@H]4C3)C(=O)N([C@@H]3CCC(=O)NC3=O)C6)CC2)ccc1[C@@H]1c2[nH]c3ccccc3c2C[C@@H](C)N1CC(F)F [Compound A48, (R)-3-((R)-3-((1-(4-((1R,3R)-2-(2,2-difluoroethyl)-3-methyl-2,3,4,9-tetrahydro-1H-pyrido[3,4-b]indol-1-yl)-3-methoxyphenyl)piperidin-4-yl)methyl)-8-oxo-1,2,3,4,4a,5,8,10-octahydro-9H-pyrazino[1′,2′:4,5][1,4]oxazino[2,3-f]isoindol-9-yl)piperidine-2,6-dione]",DC50,"ER in T47D cells; T47D cells, 16 hrs treatment",< 0.001 µM
same,Dmax,"ER in T47D cells; maximal ER degradation, T47D cells, 16 hrs treatment",> 75%
same,DC50,ER in MCF-7 cells,< 0.001 µM
same,Dmax,ER in MCF-7 cells,> 75%
"C[C@H]1Cc2c([nH]c3ccccc23)[C@H](c2cnc(N3CCC4(CC3)C[C@@H](CN3CCN5c6cc7c(cc6OC[C@@H]5C3)C(=O)N([C@@H]3CCC(=O)NC3=O)C7)CO4)nc2)N1CC(F)F [Compound A68, (R)-3-((S)-3-(((S)-8-(5-((1S,3S)-2-(2,2-difluoroethyl)-3-methyl-2,3,4,9-tetrahydro-1H-pyrido[3,4-b]indol-1-yl)pyrimidin-2-yl)-1-oxa-8-azaspiro[4.5]decan-3-yl)methyl)-8-oxo-1,2,3,4,4a,5,8,10-octahydro-9H-pyrazino[1′,2′:4,5][1,4]oxazino[2,3-f]isoindol-9-yl)piperidine-2,6-dione]",DC50,"ER in T47D cells; T47D cells, 16 hrs treatment",< 0.001 µM
same,Dmax,ER in T47D cells,> 75%
same,DC50,ER in MCF-7 cells,< 0.001 µM
same,Dmax,ER in MCF-7 cells,50 to 75%
"COc1cc(N2CC3(CCC(CN4CCN5c6ccc7c(c6OC[C@H]5C4)CN(C4CCC(=O)NC4=O)C7=O)CO3)C2)ccc1[C@@H]1c2[nH]c3ccccc3c2C[C@@H](C)N1CC(F)F (stereo partly drawn) [Compound B277, 3-((5aR)-7-((2-(4-((1R,3R)-2-(2,2-difluoroethyl)-3-methyl-2,3,4,9-tetrahydro-1H-pyrido[3,4-b]indol-1-yl)-3-methoxyphenyl)-5-oxa-2-azaspiro[3.5]nonan-7-yl)methyl)-1-oxo-1,3,5,5a,6,7,8,9-octahydro-2H-pyrazino[1′,2′:4,5][1,4]oxazino[2,3-e]isoindol-2-yl)piperidine-2,6-dione]",DC50,ER,0.01 to 0.1 µM
same,IC50,[1],0.001 to 0.01 µM
"COc1cc(N2CC3(CCC(CN4CCN5c6cc7c(cc6OC[C@@H]5C4)C(=O)N(C4CCC(=O)NC4=O)C7)CO3)C2)ccc1[C@@H]1c2[nH]c3ccccc3c2C[C@@H](C)N1CC(F)F (stereo partly drawn) [Compound B278, 3-((4aS)-3-((2-(4-((1R,3R)-2-(2,2-difluoroethyl)-3-methyl-2,3,4,9-tetrahydro-1H-pyrido[3,4-b]indol-1-yl)-3-methoxyphenyl)-5-oxa-2-azaspiro[3.5]nonan-7-yl)methyl)-8-oxo-1,2,3,4,4a,5,8,10-octahydro-9H-pyrazino[1′,2′:4,5][1,4]oxazino[2,3-f]isoindol-9-yl)piperidine-2,6-dione]",DC50,ER,0.01 to 0.1 µM
same,IC50,[1],0.001 to 0.01 µM
